Measurements as given in paper PMC5773487, “Harnessing insulin- and leptin-induced oxidation of PTP1B for therapeutic development” (Nature Communications, 2018).
“Also recorded” adds a separate entry of the source.

T1: PTP1B-OX (Homo sapiens, UniProt P18031)
T1 construct: Purified PTP1B (1–321) (100 nM) was mixed with increasing concentrations of H2O2; 6xHis (C); made in house; host or cells: E. coli BL21 (DE3)-RIL
T1 sequence (P18031 1-321): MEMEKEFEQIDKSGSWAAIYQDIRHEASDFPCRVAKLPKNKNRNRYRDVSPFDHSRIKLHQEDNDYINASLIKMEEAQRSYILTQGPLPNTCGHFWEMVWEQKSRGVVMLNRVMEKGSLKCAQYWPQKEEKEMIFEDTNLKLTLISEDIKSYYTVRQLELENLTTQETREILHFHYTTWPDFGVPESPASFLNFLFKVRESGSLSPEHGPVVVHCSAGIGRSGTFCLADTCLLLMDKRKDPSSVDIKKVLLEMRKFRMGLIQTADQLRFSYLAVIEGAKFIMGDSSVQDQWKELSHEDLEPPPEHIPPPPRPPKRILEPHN

T2: oxidized PTP1B-mut2 (L37F/K39E/K41R) (Homo sapiens, UniProt P18031, K39E/K41R/L37F)
T2 construct: PTP1B (1–321) and TCPTP (1–317) cloned in pET21b vector were used as templates; 6xHis (C); made in house; host or cells: E. coli BL21 (DE3)-RIL
T2 sequence (P18031 1-321 L37F/K39E/K41R): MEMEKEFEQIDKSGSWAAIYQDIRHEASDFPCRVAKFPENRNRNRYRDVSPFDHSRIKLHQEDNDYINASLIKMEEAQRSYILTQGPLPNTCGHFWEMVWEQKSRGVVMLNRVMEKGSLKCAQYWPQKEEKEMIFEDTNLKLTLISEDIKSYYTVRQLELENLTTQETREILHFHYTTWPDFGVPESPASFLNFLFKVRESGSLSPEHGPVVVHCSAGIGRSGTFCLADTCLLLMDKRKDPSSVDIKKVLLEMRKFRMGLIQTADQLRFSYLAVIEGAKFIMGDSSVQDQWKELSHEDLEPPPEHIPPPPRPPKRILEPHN


Experiments:
PTP1B-OX = target: T1, PTP1B-OX; experiment: reduction and reactivation of reversibly oxidized PTP1B by TCEP, DiFMUP substrate; type: biochemical; settings: for inhibition of reduction and reactivation (stabilization) of PTP1B-OX: in words
Method: Therefore, our approach has been to adapt this assay, which we used to screen for conformation-sensor scFvs[17], now to screen for small molecules that act through a similar mechanism. Our primary screening assay tested the ability of small molecule inhibitors to antagonize the reduction and reactivation of the oxidized conformation of PTP1B, similar to that of scFv45 (Fig. 4a).
Purified PTP1B (1–321) (100 nM) was mixed with increasing concentrations of H2O2 (0.05–100 mM) in phosphatase assay buffer (50 mM HEPES, pH 7.0, 100 mM NaCl, 0.1% BSA) at room temperature for 5 min. From this reaction mixture PTP1B (10 nM) was used to monitor phosphatase activity using DiFMUP as the substrate, with or without 5 mM TCEP. Activity of each sample was compared to that of the untreated PTP1B in the presence of 5 mM TCEP.
To screen the LOPAC library against PTP1B-OX, 0.5 μl of 1 mM compound in 100% DMSO was added to 384-well plates, resulting in a final compound concentration of 10 μM for the primary screen. Recombinant PTP1B (100 nM) was reversibly oxidized and inactivated with H2O2 (4 mM). The phosphatase activity was restored by a quick buffer exchange and addition of reducing agent (TCEP). PTP1B-OX was incubated with LOPAC compounds (10 μM) in the assay buffer (50 mM HEPES pH 7.0, 100 mM NaCl, 0.005% Tween, 2 mM EDTA) and the effect of individual compound on stabilizing the reversibly oxidized conformation was assessed by the phosphatase assay under reducing conditions using DiFMUP as substrate. scFv45 was used as positive control.

[1] = target: T2, oxidized PTP1B-mut2 (L37F/K39E/K41R); experiment: reduction and reactivation of oxidized PTP1B-mut2, DiFMUP, TCEP; type: biochemical; settings: TCEP 5 mM
Method: Fig. 1 Molecular characterization of PTP1B-scFv45 interaction. a Overlay of PTP1B (gray) and TCPTP (pale blue) crystal structures, highlighting residues that are changed in generating mutant forms (-mut1 and -mut2) of the enzymes. b Increasing concentrations of recombinant HA-tagged scFv45 were incubated with oxidized wild-type (-wt) or mutant (-mut) forms of PTP1B (top panel) and oxidized wild-type or mutant forms of TCPTP (bottom panel). The protein complexes were precipitated with anti-HA-agarose beads and equivalent amounts of input, supernatant, and eluate were subjected to immunoblot analysis. Data are representative of at least three independent experiments (n = 3). c Michaelis–Menten plots for wild-type (circle), -mut1 (square), or -mut2 (triangle) forms of PTP1B (left) and TCPTP (right) are shown. […] Individual data points represent the mean obtained from three separate experiments (n = 3). d Wild-type and mutant forms of PTP1B were incubated with increasing concentrations of H2O2 and phosphatase activity was measured using DiFMUP in the absence (black bar) and presence (gray bar) of the reducing agent TCEP (5 mM). e Oxidized PTP1B-wt (circle), PTP1B-mut1 (square), or PTP1B-mut2 (triangle) were incubated with increasing concentration of scFv45 (0–1000 nM) and phosphatase activity was measured using DiFMUP as substrate in the presence of the reducing agent TCEP (5 mM). […]

Molecule	inhibition of reduction and reactivation (stabilization) of PTP1B-OX (PTP1B-OX)	IC50 relative to sanguinarine (PTP1B-OX)	preference for PTP1B-OX over reduced PTP1B (PTP1B-OX)	Ki (PTP1B-OX; DiFMUP substrate)	IC50 (PTP1B-OX; wild-type PTP1B-OX, reactivation by TCEP, DiFMUP substrate, read-out: IC50 against PTP1B-OX)	inhibition of reduction and reactivation of oxidized PTP1B-mut2 [1]
CN1CCc2cc3c(cc2C(=O)Cc2ccc4c(c2C1)OCO4)OCO3 [protopine]	did not inhibit; also recorded: ineffective; also recorded: did not stabilize	–	–	–	–	–
COc1ccc2c(c[n+](C)c3c4cc5c(cc4ccc23)OCO5)c1OC [chelerythrine]	–	fivefold lower	at least 100 fold	5 µM	5 µM	unable to inhibit; also recorded: insensitive
scFv45: recombinant conformation-sensor single-chain variable fragment antibody recognizing oxidized PTP1B (antibody, V domains shown) VH: TVTLDESGGGLQAPGGALSLVCKASGFTFSSYDMGWIRQAPGKGLEYVAGITDNGRYASYGSAVDGRATISRDNGQSSVRLQLNNLRAEDTGTYYCARDDGSGWTGNSIDAWGHGTEVIVSE VL: ALTQPSSVSANPGGTVKITCSGSSSAYGYGWYQQKSPGSAPVTVIYNNNKRPSNIPSRFSGSKSGSTGTLTITGVQAEDEAVYFCGSEDSSTDAIFGAGTTLTVL	impaired in a dose-dependent manner	–	–	–	–	did not attenuate
